Assay [1] has as its system Cryptosporidium parvum oocysts. Briefly: Excystation of oocysts after disinfection treatment. Conditions: oocysts treated with 100 mg L^−1 for 4 hours; untreated 89.5%. The assay is classed as cell-based.
Method: For treatment with silver nanoparticles (AgNPs), the animal infectivity experiment was done after the oocysts were treated with 100 mg L^−1 proteinate capped AgNPs (Argenol) (˜15 nm) for 4 hours.
After each disinfection treatment, the oocysts were treated with 10% bleach (Bleach-Rite) for 30 minutes in a micro-centrifuge tube at room temperature, followed by vortexing every 10 minutes. The suspension was incubated in a microfluidic chamber with a glass cover-slip for an hour, for real-time recording of the excystation; i.e. release of sporozoites from the oocyst. The excystation was examined by inverted microscopy using 63× oil immersion phase and DIC objectives. […] The percentage of the excystation was calculated as: (# of excysted oocytsl # of total oocyst)×100.^29 For mouse model infectivity studies,^12 all mice were malnourished for a period of 13 days before experiments. For every six mice fed with the oocysts for each treatment, three other mice were fed with untreated oocysts as positive control.
The test system of assay [2] is Cryptosporidium parvum oocysts. In words: Dielectrophoretic characterization of oocysts (DEP tracking, single shell model fit). The assay is classed as cell-based. Conditions: 100 mg L^−1 for 4 hours.
Assay [3] has as its system C. difficile VPI10463 (high-toxigenic, HTCD). Briefly: Growth measurement (OD600), HTCD strain. The assay is classed as cell-based, Clostridium difficile. The protocol: (§1) Growth measurement. 250 μL of the overnight cultured bacteria suspension and 750 μL of the BHI broth, with or without vancomycin were mixed in Eppendorf tubes. The optical density at a wavelength of 600 nm (OD600) of the mixed bacteria suspensions, measured by Spectrophotometry (Eppendorf Biophotometer) before incubation, was indexed as the “0 hour” time point. The OD600 number at later time points (4 and 24 hours) for respective strain at each condition was normalized to its 0 hour point.
(§2) In order to evaluate the sensitivity of DEP methods versus the current state of the art, we benchmark the DEP velocity data for HTCD and NTCD C. difficile strains after various levels of antibiotic treatment versus conventional diagnostic measures for the loss of C. difficile functionality, such as toxin production and growth rate values. To enable the comparison of DEP data across the range of C. difficile strains, we choose a frequency of 1 MHz, since all strains show some level of pDEP before and after antibiotic treatment. For measurements of alteration in toxin production level and growth rate of C. difficile strains after antibiotic treatment, it is necessary to culture the microbial cells with the antibiotic over a period of 4-24 hours, to enable sufficient sensitivity for the measurements. […] Furthermore, the results after antibiotic treatment for a particular period of time are compared against their respective values on untreated microbials for the same period of culture time (this control value for each treatment time is indicated as “Un-0”, “Un-4” or “Un-24” in FIGS. 15c-15e).

The test system of assay [4] is C. difficile VPI11186 (non-toxigenic, NTCD). In words: Growth measurement (OD600), NTCD strain. The assay is classed as cell-based, Clostridium difficile. Here is the method: as §1, §2
The test system is the same in assay [5]. Briefly: Dielectrophoretic (DEP) characterization of C. difficile NTCD strain after vancomycin treatment. The assay is classed as cell-based, Clostridium difficile. The protocol: (§3) Bacteria strains preparation. II three C. difficile strains were purchased from ATCC. The bacteria were cultured in brain heart infusion (BHI) broth (BD BBL Brain Heart Infusion) at 37° C. overnight under anaerobic condition before further antibiotic treatment or dielectrophoretic experiments. 250 μL of the overnight cultured bacteria suspension and 750 μL of the BHI with vancomycin (Novaplus) or without vancomycin for the control groups were mixed in Eppendorf tubes and incubated at 37° C. for 4 hours or 24 hours. The vancomycin concentration for VPI10463 (high-toxigenic, HTCD) was 2 mg/mL and 1 mg/mL for ATCC630 (low-toxigenic, LTCD) and VPI11186 (non-toxigenic, NTCD). […]
(§4) Dielectrophoretic characterization of C. difficile. […] The trajectory of the unlabeled C. difficile of each strain type was observed under this field, as high frame per second movies to quantify the DEP velocity. For experiments within mixed C. difficile samples, the trapped microbials were released and analyzed with the immunoassay to confirm toxigenicity. […]
(§5) FIGS. 2a and 2b show the electrode-less device with external electrodes (1 cm apart) to initiate localized microbial trapping in the constriction region. […] In this manner, as per prior work^33, the translational velocity under the DEP trapping force is measured for ˜20 individual microbial cells to quantify the DEP spectra. […]

Assay [6] concerns C. difficile VPI10463 (high-toxigenic, HTCD). In words: Toxicity enzyme-linked immunosorbent assay, total toxin (A/B) production. The assay is classed as cell-based, Clostridium difficile. The protocol: Toxicity enzyme-linked immunosorbent assay. Total toxin (A/B) production was measured using the C. difficile TOX A/B II kit (Tech-Lab) according to the manufacturer's instructions. Culture supernatants were collected at 0, 4 and 24 hours by centrifugation at 3500 rcf for 5 min and stored at −20° C. The supernatants of the VPI110463 strain were diluted 1 to 20, while the supernatants of the VPI11186 strain were undiluted. Each specimen was run in duplicate. Total toxin levels were determined by measuring A450 under a 96 well plate spectrophotometry. The A450 number at each time point (4 hours and 24 hours) of each strain at each condition was normalized to its 0 hour time point.
as §2

Assay [7] has the same test system. Briefly: Dielectrophoretic (DEP) characterization of C. difficile HTCD strain after vancomycin treatment. The assay is classed as cell-based, Clostridium difficile. Here is the method:
Bacteria strains preparation. II three C. difficile strains were purchased from ATCC. The bacteria were cultured in brain heart infusion (BHI) broth (BD BBL Brain Heart Infusion) at 37° C. overnight under anaerobic condition before further antibiotic treatment or dielectrophoretic experiments. 250 μL of the overnight cultured bacteria suspension and 750 μL of the BHI with vancomycin (Novaplus) or without vancomycin for the control groups were mixed in Eppendorf tubes and incubated at 37° C. for 4 hours or 24 hours. The vancomycin concentration for VPI10463 (high-toxigenic, HTCD) was 2 mg/mL and 1 mg/mL for ATCC630 (low-toxigenic, LTCD) and VPI11186 (non-toxigenic, NTCD). Prior to the dielectrophoresis experiments, the BHI broth was replaced with 8.8% sucrose water and re-adjusted with BHI broth to optimize the medium conductivity 105±5% mS/m for enabling DEP-based distinction of C. difficile strains from mixed samples. All three strains were confirmed to be viable within this altered BHI media over the timeframe of the DEP experiments, as per the colony forming unit (CFU) assay.
Dielectrophoretic characterization of C. difficile. The experimental setup has been described in our prior work. Briefly, Standard PDMS (Poly-di-methyl-siloxane) micro-molding methods were used to micro-fabricate channels with sharp lateral constrictions (1000 μm to 15 μm). […] The trajectory of the unlabeled C. difficile of each strain type was observed under this field, as high frame per second movies to quantify the DEP velocity. For experiments within mixed C. difficile samples, the trapped microbials were released and analyzed with the immunoassay to confirm toxigenicity. […]
as §5

Assay [8] has as its system C. difficile ATCC630 (low-toxigenic, LTCD). In words: Dielectrophoretic (DEP) characterization of C. difficile LTCD strain after vancomycin treatment. Conditions: vancomycin 1 mg/mL, untreated 500 kHz. The assay is classed as cell-based, Clostridium difficile. The protocol:
as §3, §4, §5

Setting [9] is: 4 hours of vancomycin treatment.
[10] abbreviates: 24 hours of vancomycin treatment.

“And” between values parts separate entries of the source, which are not always exact repeats. Identical values can stand only once.

As for `O=[N+]([O-])[O-].[Ag+]` [AgNO3, silver nitrate], the Excystation rate in assay [1] was 71.4% and 70%. In addition, in assay [2], the “DEP response of treated versus untreated oocysts at 100 kHz and at 400 kHz” value is on record as “not significantly altered”.
For `CN[C@H](CC(C)C)C(=O)N[C@H]1C(=O)N[C@@H](CC(N)=O)C(=O)N[C@H]2C(=O)N[C@H]3C(=O)N[C@H](C(=O)N[C@H](C(=O)O)c4cc(O)cc(O)c4-c4cc3ccc4O)[C@H](O)c3ccc(c(Cl)c3)Oc3cc2cc(c3O[C@@H]2O[C@H](CO)[C@@H](O)[C@H](O)[C@H]2O[C@H]2C[C@](C)(N)[C@H](O)[C@H](C)O2)Oc2ccc(cc2Cl)[C@H]1O` [vancomycin], the Growth rate reduction result in assay [3] (setting [9]) is reported as “minimal growth rate reduction”. Moreover, the “Relative growth rate (OD600 normalized to 0 hour)” value is 1.51 times in assay [3] (setting [9]), 1.61 times in assay [3] (setting [10]), 1.1 times in assay [4] (setting [9]) and 1.05 times in assay [4] (setting [10]). In assay [3] (setting [10]), the “Difference in growth rate versus the control (Un-24)” value was found to be 2.2. Moreover, the “Difference in growth rate versus the untreated sample (Un-4)” value in assay [4] (setting [9]) was found to be 0.74. The “Difference in growth rate versus the untreated sample (Un-24)” value in assay [4] (setting [10]) came out at 3.3. Moreover, the “DEP crossover frequency after vancomycin treatment” value in assay [5] (NTCD strain, vancomycin 1 mg/mL, untreated 900 kHz) was 600 kHz; in assay [7] (HTCD / hypervirulent TCD strain, vancomycin 2 mg/mL, untreated 300 kHz or 400 kHz), 600 kHz and 900 kHz; in assay [8] it was 300 kHz. Moreover, the “DEP velocity after vancomycin treatment” value is reported as roughly 7 μm/s in assay [5] (NTCD, 1 MHz, 4 hours of vancomycin treatment, untreated 16 μm/s) and 7.6 μm/s in assay [7] (HTCD, 1 MHz, 4 hours of vancomycin treatment, untreated 30.7 μm/s). In addition, the “Difference in toxin production level versus the control (Un-4)” value in assay [6] (setting [9]) was found to be 0.55. Also, the “Relative toxin production (normalized to 0 hour)” value in assay [6] (setting [9]) is recorded as 1.05 times; in assay [6] (setting [10]), “small reduction”. Further, in assay [6] (setting [10]), the “Difference in toxin production level versus the control (Un-24)” value is given as 7.5. Moreover, in assay [7] (HTCD, 400 kHz, untreated HTCD shows pDEP), the “DEP behavior at 400 kHz of vancomycin treated cells” value was “some residual level of nDEP and nDEP”.
